Assay results reported in patent US7763615B2, “Ecteinascidin analogs for use as antitumour agents” (priority 2001, dated 2010).
In brackets after ≈: the same amount, converted by molar mass. Like-named read-outs stand apart in the source and are kept apart here.

How the values were obtained:
[1] = tested on: A549; test: cells; type: cell-based; conditions: for GI50: read-out: GI50; for TGI: A549
In short: (§1)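 Seeding density 5×10^3 cells/well; attachment 18 h in drug-free medium; exposure 48 h, 10 to 10^−8 μg/ml. Fixation cold TCA 60 min at 4° C, SRB 10 min, absorbance 490 nm.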

[2] = tested on: MB231; test: cells; type: cell-based; conditions: Homo sapiens
In short: as §1

[3] = tested on: SW-620; test: cells; type: cell-based; conditions: Homo sapiens
In short: as §1

[4] = tested on: DU145; test: cells; type: cell-based; conditions: for TGI: DU145
In short: as §1

[5] = tested on: HT29; test: cells; type: cell-based; conditions: for TGI: HT29
In short: as §1

[6] = tested on: MCF; test: cells; type: cell-based; conditions: Homo sapiens
In short: as §1

[7] = tested on: MEL-28; test: cells; type: cell-based; conditions: for TGI: MEL-28
In short: as §1

[8] = tested on: A498; test: cells; type: cell-based; conditions: Homo sapiens
In short: as §1

[9] = s9, 60 min, 1 μM
Procedure: The metabolic stability was determined used human liver S9 homogenate that including both microsomal and cytosolic enzyme activities. The test compound was diluted in methanol (0.625%) and acetonitrile (0.625%) at the concentration 1 μM and incubated in the human liver pool (protein=1 mg/mL) during 60 min at 37° C. Peak areas corresponding to all analytes (metabolic products) were determined by HPLC-MS/MS. Areas were recorded and ratios of peak areas of analytes to that of internal standard for each analyte were determined. The ratio of precursor compound remaining after 60 minutes and the amount remaining at time zero, expressed as percent, are reported as metabolic stability. Higher values mean higher metabolic stability.

[10] = tested on: L8, normal rat skeletal muscle cells; conditions: 24 h
[11] = molecular target: CYP3A4 (Homo sapiens, UniProt P08684); test: in vitro; conditions: CYP3A4 (% inhibition)
Sequence of CYP3A4 (P08684 whole entry): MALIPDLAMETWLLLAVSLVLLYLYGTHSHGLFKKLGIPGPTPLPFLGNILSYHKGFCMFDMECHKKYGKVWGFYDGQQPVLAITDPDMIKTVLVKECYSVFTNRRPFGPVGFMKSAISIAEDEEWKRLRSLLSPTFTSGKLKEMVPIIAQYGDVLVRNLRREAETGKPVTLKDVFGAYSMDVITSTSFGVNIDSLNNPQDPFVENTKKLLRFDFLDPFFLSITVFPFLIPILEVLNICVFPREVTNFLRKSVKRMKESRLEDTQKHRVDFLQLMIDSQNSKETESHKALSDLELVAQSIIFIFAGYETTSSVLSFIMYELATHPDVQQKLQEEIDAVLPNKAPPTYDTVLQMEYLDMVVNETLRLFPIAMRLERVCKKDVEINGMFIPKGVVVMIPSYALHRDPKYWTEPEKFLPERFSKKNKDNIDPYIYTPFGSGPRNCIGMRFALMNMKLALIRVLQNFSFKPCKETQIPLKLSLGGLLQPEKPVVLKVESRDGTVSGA
Procedure: For CYP3A4 inhibition assay, the compound were tested at 10 μM in duplicate with a 0.25% final concentration of both methanol and acetonitrile in presence of the fluorescent substrate BFC (50 μM). The conversion of the BFC (7-benzyloxy-4-trifluoromethylcoumarin) in HFC (7-hydroxy-4-trifluoromethylcoumarin) was determined spectro-fluormetry after incubation with the enzyme during 30 min at 37° C.
(§2) For both assays, the fluorescent intensity measured at t=0 is subtracted from that measured after the appropriate incubation time. The ratio of signal-to-noise is calculated by comparing the fluorescence in incubations containing the test compound to the control samples containing the same solvent vehicle. The percent of control activity is calculated and reported as percent inhibition.

[12] = tested on: FDC-P1, normal mouse myelogeous stem cells; conditions: 24 h
Procedure: (§3) In order to assess the cytotoxicity of the drugs to normal cells, we used 96 well plates plated at a density of 5000 cells per well (except for the FDC-P1 which were plated at 12,000 cells per well) with normal cell lines (ATCC, Table 1) maintained as per the directions of the ATCC: AML-12, normal mouse liver cells; NRK-52E, normal rat kidney cells; L8, normal rat skeletal muscle cells; FDC-P1, normal mouse myelogeous stem cells; and H9c2 (2-1), normal rat cardiac muscle cells. The cells in each plate were permitted to settle overnight before adding the test drug.
(§4) To each well (100 μl medium) 10 μl of drug in media was added at varying concentrations (1×10-10-0.01 mg/ml final concentration) and further incubated overnight at 37° C. with 5% CO2. After 24 h the following assays were performed. All experiments were repeated at least 3 times and were assayed in duplicate.
(§5) MTS assay (CellTiter 96 aqueous) was performed according to the manufacturer's (Promega) directions (for all cell types). Cell viability (mitochondrial activity) is determined via enzymatic conversion of the formazan substrate.

[13] = physchem; conditions: pH 7.4, log D n-Octanol-Dulbecco's PBS pH 7.4
[14] = tested on: H9c2 (2-1), normal rat cardiac muscle cells; conditions: 24 h
[15] = tested on: (HEPG2); conditions: human, 24 h, 30 μM
[16] = tested on: AML-12, normal mouse liver cells; conditions: 24 h
Procedure: as §3, §4, §5

[17] = physchem; conditions: pH 7.4, aqueous buffer, Solubility Dulbecco's PBS pH 7.4
[18] = tested on: NRK-52E, normal rat kidney cells; conditions: 24 h
Procedure: as §3, §4, §5

[19] = molecular target: CYP2D6 (Homo sapiens, UniProt P10635); test: in vitro; conditions: CYP2D6 (% inhibition)
Sequence of CYP2D6 (P10635 whole entry): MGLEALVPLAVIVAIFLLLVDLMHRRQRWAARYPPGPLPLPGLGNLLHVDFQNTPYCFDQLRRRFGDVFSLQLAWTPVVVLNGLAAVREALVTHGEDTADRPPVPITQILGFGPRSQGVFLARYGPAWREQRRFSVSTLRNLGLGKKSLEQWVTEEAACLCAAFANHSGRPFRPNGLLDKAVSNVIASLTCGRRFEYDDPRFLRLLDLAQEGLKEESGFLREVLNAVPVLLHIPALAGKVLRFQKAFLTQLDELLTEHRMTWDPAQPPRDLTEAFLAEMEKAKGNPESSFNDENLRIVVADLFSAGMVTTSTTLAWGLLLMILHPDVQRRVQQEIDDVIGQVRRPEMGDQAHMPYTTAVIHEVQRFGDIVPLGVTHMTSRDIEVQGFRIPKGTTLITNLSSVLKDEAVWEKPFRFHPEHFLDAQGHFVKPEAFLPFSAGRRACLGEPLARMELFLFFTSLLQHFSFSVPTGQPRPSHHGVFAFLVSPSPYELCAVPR
Procedure: For CYP2D6 inhibition assay, the compound are tested at 10 μM in duplicate with a 0.25% final concentration of both methanol and acetonitrile in presence of the fluorescent substrate AMMC (3-[2-N,N-diethyl-N-methylammonium)ethyl]-7-methoxy-4-methylcoumarin) at the concentration of 1.5 μM). The conversion of the AMMC in AHMC (3-[2-N,N-diethyl-N-methylammonium)ethyl]-7-hydroxy-4-methylcoumarin) is determined spectrofluorimetry after incubation with the enzyme during 450 min at 37° C.
as §2

[20] = tested on: IGROV-ET; test: cells; type: cell-based; conditions: for GI50 / CC50: Homo sapiens; for GI50 / TGI: IGROV-ET; for CC50: read-out: LC50, IGROV-ET
In short: as §1

[21] = tested on: IGROV; test: cells; type: cell-based; conditions: for GI50 / CC50: Homo sapiens; for CC50: read-out: LC50, IGROV
In short: as §1

[22] = tested on: LOVO-DOX; test: cells; type: cell-based; conditions: for GI50 / CC50: Homo sapiens; for GI50 / TGI: LOVO-DOX; for CC50: read-out: LC50, LOVO-DOX
In short: as §1

[23] = tested on: SK-BR3; test: cells; type: cell-based; conditions: for GI50 / CC50: Homo sapiens; for GI50: SK-BR-3, SK-BR3; for CC50: SK-BR-3, read-out: LC50, SK-BR3; for TGI: SK-BR3
In short: as §1

[24] = tested on: PANC-1; test: cells; type: cell-based; conditions: for GI50 / CC50: Homo sapiens; for GI50: PANC-1, PANC-1; for CC50: PANC-1, read-out: LC50, PANC-1; for TGI: PANC-1
In short: as §1

[25] = tested on: K562; test: cells; type: cell-based; conditions: for GI50 / CC50: Homo sapiens; for GI50: K562, K562; for CC50: K562, read-out: LC50, K562; for TGI: K562
In short: as §1

[26] = tested on: LNCAP; test: cells; type: cell-based; conditions: for GI50 / CC50: Homo sapiens, LNCaP; for CC50: read-out: LC50, LNCAP; for TGI: LNCAP
In short: as §1

[27] = tested on: LOVO; test: cells; type: cell-based; conditions: for GI50 / CC50: Homo sapiens, LoVo; for CC50: read-out: LC50, LOVO; for TGI: LOVO
In short: as §1

[28] = tested on: H-MEC-1; test: Inhibition of cells growth by colorimetric assay (SRB), H-MEC-1; type: cell-based; conditions: for TGI: H-MEC-1; for GI50 / CC50: Homo sapiens; for GI50: HMEC-1, H-MEC-1; for CC50: HMEC-1, read-out: LC50, H-MEC-1
In short: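 SRB colorimetric growth assay: 5×10^3 cells/well, 18 h attachment, 48 h continuous compound exposure at 10–10^−8 μg/ml in DMSO/EtOH/PBS. TCA fixation, SRB stain, OD 490 nm; triplicate wells, GI, TGI and LC derived.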

[29] = tested on: SK-OV3; test: Inhibition of cells growth by colorimetric assay (SRB), SK-OV3; type: cell-based; conditions: for GI50 / CC50: Homo sapiens; for GI50: SK-OV-3, SK-OV3; for CC50: SK-OV-3, read-out: LC50, SK-OV3; for TGI: SK-OV3
In short: as §1

[30] = Homo sapiens, DU-145, 48 h, DU145, 48 hours exposure, SRB
[31] = Homo sapiens, HT-29, 48 h, HT29, 48 hours exposure, SRB
[32] = Homo sapiens, SK-MEL-28, 48 h, MEL-28, 48 hours exposure, SRB
[33] = Homo sapiens, A549, read-out: LC50, A549
[34] = Homo sapiens, DU-145, read-out: LC50, DU145
[35] = Homo sapiens, HT-29, read-out: LC50, HT29
[36] = Homo sapiens, SK-MEL-28, MEL-28
[37] = Homo sapiens, SK-MEL-28, read-out: LC50, MEL-28

## COc1c(C)cc2c(c1O)[C@@H]1C3[C@@H]4SC[C@]5(NCCc6c5[nH]c5c(OCc7ccccc7)cccc65)C(=O)COC[C@@H](c5c6c(c(C)c(OC(C)=O)c54)OCO6)N3[C@@H](O)[C@H](C2)N1C (stereo partly drawn) [Compound 28]
[1]; Homo sapiens, A549, 48 h, A549, 48 hours exposure, SRB
  GI50: 0.00348 µM
[1]; Homo sapiens, A549, 48 h, A549, 48 hours exposure, SRB, read-out: TGI
  IC (TGI): 0.0465 µM
[1]; Homo sapiens, A549, 48 h, read-out: LC50, A549, 48 hours exposure, SRB
  CC50: 0.0348 µM
[2]; 48 h, read-out: LC50
  CC50: 0.116 µM
[2]; 48 h, read-out: TGI
  IC (TGI): 0.00929 µM
[2]; MB231, 48 hours exposure, SRB
  GI50: 0.00348 µM
[3]; SW-620, 48 h, read-out: LC50
  CC50: 0.0929 µM
[3]; SW-620, 48 hours exposure, SRB
  IC (TGI): 0.0232 µM
[3]; SW-620, 48 hours exposure, SRB, read-out: GI50
  GI50: 0.00697 µM
[4]; [30]
  GI50: 0.00232 µM
  IC (TGI): 0.00348 µM
[4]; Homo sapiens, DU-145, 48 h, read-out: LC50, DU145, 48 hours exposure, SRB
  CC50: 0.00929 µM
[5]; [31]
  GI50: 0.0116 µM
  IC (TGI): 0.0697 µM
[5]; Homo sapiens, HT-29, 48 h, read-out: LC50, HT29, 48 hours exposure, SRB
  CC50: 0.105 µM
[6]; 48 h, read-out: LC50
  CC50: 0.116 µM
[6]; MCF, 48 hours exposure, SRB
  GI50: 0.00581 µM
[6]; MCF, 48 hours exposure, SRB, read-out: TGI
  IC (TGI): 0.0232 µM
[7]; [32]
  GI50: 0.0232 µM
  IC (TGI): 0.0348 µM
[7]; Homo sapiens, SK-MEL-28, 48 h, read-out: LC50, MEL-28, 48 hours exposure, SRB
  CC50: 0.0813 µM
[8]; A498, 48 h, read-out: LC50
  CC50: 0.0581 µM
[8]; A498, 48 hours exposure, SRB
  GI50: 0.00348 µM
  IC (TGI): 0.0116 µM
[9]
  Human Liver S9 Metabolic Stability (% remaining): 33 % remaining
[10]
  Skeletal: 1.45E−07
[11]
  inhibition at 30 min, 10 µM: 79%
[12]
  Myelo: 2.00E−07
[13]
  logD at 60 min: > 4.6
[14]
  Heart: 1.84E−07
[15]
  Cell Viability (% inhibition): 17 % inhibition
[16]
  Liver: 1.42E−07
[17]
  solubility: < 1 µM
[18]
  Kidney: 8.37E−08
[19]
  inhibition at 450 min, 10 µM: 34%

## COc1c(C)cc2c(c1OC(=O)OC(C)(C)C)[C@@H]1C3[C@@H]4SC[C@]5(NCCc6c5[nH]c5ccccc65)C(=O)COC[C@@H](c5c6c(c(C)c(OC(C)=O)c54)OCO6)N3[C@@H](O)[C@H](C2)N1C (stereo partly drawn) [Compound 46]
[1]
  TGI: 6.78E−08
[1]; Homo sapiens, A549, A549
  GI50: 0.0333 µM
[1]; [33]
  CC50: 0.335 µM
[20]
  GI50: 0.0495 µM
  CC50: 7.35 µM
  TGI: 1.29E−07
[21]
  TGI: 5.40E−08
  GI50: 0.0232 µM
  CC50: 0.192 µM
[4]
  TGI: 4.61E−08
[4]; Homo sapiens, DU-145, DU145
  GI50: 0.00648 µM
[4]; [34]
  CC50: ≥ 11.7 µM
[5]
  TGI: 1.22E−06
[5]; Homo sapiens, HT-29, HT29
  GI50: 0.0444 µM
[5]; [35]
  CC50: ≥ 11.7 µM
[7]; [36]
  GI50: 0.0124 µM
[7]; [37]
  CC50: 0.153 µM
[7]
  TGI: 4.07E−08
[22]
  GI50: 0.0382 µM
  CC50: ≥ 11.7 µM
  TGI: 2.41E−07
[23]
  GI50: 0.0163 µM
  CC50: 0.412 µM
  TGI: 5.84E−08
[24]
  GI50: 0.0411 µM
  CC50: ≥ 11.7 µM
  TGI: 2.58E−07
[25]
  GI50: 1.22 µM
  CC50: 3.38 µM
  TGI: 2.02E−06
[26]
  GI50: 0.000117 µM
  CC50: 0.0175 µM
  TGI: 3.25E−09
[27]
  GI50: 0.0156 µM
  CC50: ≥ 11.7 µM
  TGI: 5.70E−08
[9]
  Human Liver S9 Metabolic Stability (% remaining): 7 % remaining
[28]
  TGI: 1.17E−06
  GI50: 0.026 µM
  CC50: ≥ 11.7 µM
[10]
  Skeletal: 2.16E−07
[11]
  inhibition at 30 min, 10 µM: 60%
[12]
  Myelo: 1.17E−07
[29]
  GI50: 0.0306 µM
  CC50: ≥ 11.7 µM
  TGI: 2.00E−06
[13]
  logD at 60 min: > 5
[14]
  Heart: 3.51E−08
[15]
  Cell Viability (% inhibition): 33 % inhibition
[16]
  Liver: 5.01E−08
[17]
  solubility: 1.37 µM (≈ 1.19 µg/mL)
[18]
  Kidney: 4.01E−08
[19]
  inhibition at 450 min, 10 µM: 16%

## C=COC(=O)Oc1c(OC)c(C)cc2c1[C@@H]1C3[C@@H]4SC[C@]5(NCCc6c5[nH]c5ccccc65)C(=O)COC[C@@H](c5c6c(c(C)c(OC(C)=O)c54)OCO6)N3[C@@H](O)[C@H](C2)N1C (stereo partly drawn) [Compound 47]
[1]
  TGI: 7.50E−08
[1]; Homo sapiens, A549, A549
  GI50: 0.0333 µM
[1]; [33]
  CC50: 1.33 µM
[20]
  GI50: 0.0697 µM
  CC50: ≥ 12.1 µM
  TGI: 3.61E−06
[21]
  TGI: 4.07E−08
  GI50: 0.0106 µM
  CC50: 0.909 µM
[4]
  TGI: 2.06E−08
[4]; Homo sapiens, DU-145, DU145
  GI50: 0.00546 µM
[4]; [34]
  CC50: ≥ 12.1 µM
[5]
  TGI: 1.21E−05
[5]; Homo sapiens, HT-29, HT29
  GI50: 0.0388 µM
[5]; [35]
  CC50: ≥ 12.1 µM
[7]; [36]
  GI50: 0.00426 µM
[7]; [37]
  CC50: 0.207 µM
[7]
  TGI: 1.00E−08
[22]
  GI50: 0.0407 µM
  CC50: ≥ 12.1 µM
  TGI: 1.17E−07
[23]
  GI50: 0.00756 µM
  CC50: 0.693 µM
  TGI: 3.47E−08
[24]
  GI50: 0.0424 µM
  CC50: ≥ 12.1 µM
  TGI: 1.70E−06
[25]
  GI50: 0.0131 µM
  CC50: 6.32 µM
  TGI: 2.11E−06
[26]
  GI50: 0.00265 µM
  CC50: 0.00976 µM
  TGI: 5.08E−09
[27]
  GI50: 0.00626 µM
  CC50: ≥ 12.1 µM
  TGI: 4.64E−08
[9]
  Human Liver S9 Metabolic Stability (% remaining): 5 % remaining
[28]
  TGI: 1.50E−07
  GI50: 0.00678 µM
  CC50: ≥ 12.1 µM
[10]
  Skeletal: 2.57E−08
[11]
  inhibition at 30 min, 10 µM: 38%
[12]
  Myelo: 6.76E−08
[29]
  GI50: 0.00898 µM
  CC50: ≥ 12.1 µM
  TGI: 2.88E−07
[13]
  logD at 60 min: > 5
[14]
  Heart: 7.36E−08
[15]
  Cell Viability (% inhibition): 18 % inhibition
[16]
  Liver: 3.04E−08
[17]
  solubility: < 1 µM
[18]
  Kidney: 3.15E−08
[19]
  inhibition at 450 min, 10 µM: 10%
